Experimental data taken from patent US12528837B2, “Aryl substituted polymyxin derivatives” (priority 2018, dated 2026).
Converted amounts (≈) assume the structure as drawn. Read-outs that look alike come from different tables or passages of the source. *1 amine or outer side, *2 acyl side, *3 side chain or, on linkers, in order; H or OH if unused. Where a SMILES comes first, the peptide text is derived from it. Bridges are numbered along the chain shown (N, C = ends). [ ]: non-standard residue; d: D form. The star is where a group is joined. GABA(3R-Bn) = O=C(C[C@H](CN[*:1])Cc1ccccc1)[*:2]; X6 = CC(C)Cc1cccc([C@@H](CN)CC(=O)*)c1; X3 = CC(C)c1cccc([C@@H](CN)CC(=O)*)c1; X9 = CC(C)c1cccc([C@H](CN)CC(=O)*)c1; X8 = NC[C@@H](CC(=O)*)Cc1cccc(Cl)c1; X15 = NC[C@@H](CC(=O)*)c1ccccc1Cl; X5 = NC[C@H](CC(=O)*)c1ccc(Cl)cc1; Dab = NCC[C@H](N)C(=O)O; Abu = CC[C@H](N)C(=O)O; Dap = NC[C@H](N)C(=O)O

Experiments:
[1] = Kidney drug level after subcutaneous dose in mouse; type: in vivo
Outline: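 Mice were euthanised four hours after subcutaneous dosing. Both kidneys were trimmed, weighed, snap-frozen, then homogenised with zirconium oxide beads. After centrifugation (13,000 rpm, 6 °C, 10 min), supernatants were analysed by LC-MS-MS.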

HK-2 cells = experiment: In vitro renal cell toxicity assay (HK-2); type: cell-based
Outline: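 HK-2 cells seeded 7,500/well, adhered overnight, then exposed to compound for 24 h at 37° C, 5% CO2, with 5% water and 0.5% DMSO. Background-subtracted, vehicle-normalised dose-response fitted with bottom fixed at zero; IC50 reported relative to PMB in the same run, median where repeated.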

E. coli CA58 = type: cell-based
Outline: (§1)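 Values shown are minimum inhibitory concentrations in μg/mL, taken as the median whenever a compound underwent several tests. Bacteria were inoculated from a direct colony suspension matched to a 0.5 McFarland standard.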

P. aeruginosa CCUG 59347 = type: cell-based
Outline: as §1

K. pneumoniae CA64 = type: cell-based
Outline: as §1

E. coli ATCC 25922 = type: cell-based
Description: (§2) The inoculum was prepared by making a direct suspension of isolated colonies (selected from an 18-24 hour Mueller-Hinton agar plate) adjusted to the 0.5 McFarland standard. […] The assays were performed in duplicate. […] The MIC values are quoted in μg/mL.

A. baumannii NCTC 13424 = type: cell-based
Description: as §2

P. aeruginosa ATCC 27853 = type: cell-based
Description: as §2

[2] = test system: A. baumannii ATCC BAA-747; type: cell-based
Description: as §2

K. pneumoniae ATCC 13822 = type: cell-based
Description: as §2

[3] = Renal toxicity in mice, 17.2 mg/kg sc three times per day, urinary biomarkers; type: in vivo, mouse; conditions: mice, sc three times per day 17.2 mg free base/kg, urine 24 h from day 4, geometric mean
Description: Starting immediately after the first dose on day 4, mice were transferred to individual metabolic cages and urine was collected over the following 24 hours for determination of biomarker levels (albumin, cystatin C, KIM-1).
PMB values show the range from 4 experiments and colistin from 2 experiments.
Elevation of albumin, cystatin C or KIM-1 in the urine are signs of renal damage.

[4] = Renal toxicity in mice, separate experiment Example 17 vs PMB; type: in vivo, mouse; conditions: sc 25 mg free base/kg, four doses at 8 hr intervals
Description: (§3) After the fourth dose animals were transferred into individual metabolic cages and urine collected for 24 hours for determination of urinary biomarkers. After collecting urine mice were euthanised and the kidneys harvested for histopathology.
In a separate experiment Example 17 was compared with PMB.

[5] = Renal toxicity in mice, 25 mg/kg sc four doses at 8 hr intervals, biomarkers and histopathology; type: in vivo, mouse; conditions: sc 25 mg free base/kg
Description: as §3

[6] = mouse, in vivo, mice, 17.2 mg/kg free base sc, 4 h, read-out: 4 hr kidney level
[7] = IC50 relative to PMB in the same experiment, 24 h
[8] = cation-adjusted Mueller-Hinton Broth, 18-20 h, 35° C.

Molecule	tissue level at time at 4 h ([1]; mouse, in vivo, sc, 17.2 mg/kg) [ng/g]	HK-2 rel to PMB (HK-2 cells)	MIC E. coli CA58 (E. coli CA58; CA58) [µg/mL]	MIC P. aeruginosa CCUG 59347 (P. aeruginosa CCUG 59347; CCUG 59347) [µg/mL]	MIC K. pneumoniae CA64 (K. pneumoniae CA64; CA64) [µg/mL]	MIC E. coli ATCC 25922 (E. coli ATCC 25922; ATCC 25922) [µg/mL]	MIC A. baumannii NCTC 13424 (A. baumannii NCTC 13424; NCTC 13424) [µg/mL]	MIC P. aeruginosa ATCC 27853 (P. aeruginosa ATCC 27853; ATCC 27853) [µg/mL]	MIC A. baumannii ATCC BAA-747 ([2]; ATCC BAA-747) [µg/mL]	MIC K. pneumoniae ATCC 13822 (K. pneumoniae ATCC 13822; ATCC 13822) [µg/mL]	MIC E. coli CA58 (E. coli CA58; [8]) [µg/mL]	MIC P. aeruginosa CCUG 59347 (P. aeruginosa CCUG 59347; [8]) [µg/mL]	MIC K. pneumoniae CA64 (K. pneumoniae CA64; [8]) [µg/mL]	MIC A. baumannii NCTC 13424 (A. baumannii NCTC 13424; [8]) [µg/mL]	MIC A. baumannii ATCC BAA-747 [2, 8] [µg/mL]	MIC E. coli ATCC 25922 (E. coli ATCC 25922; [8]) [µg/mL]	MIC K. pneumoniae ATCC 13822 (K. pneumoniae ATCC 13822; [8]) [µg/mL]	other results
CC(C)C[C@@H]1NC(=O)[C@@H](Cc2ccccc2)NC(=O)[C@H](CCN)NC(=O)[C@@H](NC(=O)[C@H](CN)NC(=O)[C@@H](NC(=O)C[C@H](CN)Cc2cccc(Cl)c2)[C@@H](C)O)CCNC(=O)[C@H]([C@@H](C)O)NC(=O)[C@H](CCN)NC(=O)[C@H](CCN)NC1=O [Example 11, (R)-4-amino-3-(3- chlorobenzyl)butanoyl- Thr-Dap-Cyclo[Dab- Dab-DPhe-Leu-Dab- Dab-Thr]. Isomer 1] (X8-T[Dap][Dab][Dab][dF]L[Dab][Dab]T; lactam 3-C)	163000	5.2	4 (≈ 3.45 µM)	0.5 (≈ 0.431 µM)	16 (≈ 13.8 µM)	0.5 (≈ 0.431 µM)	0.25 (≈ 0.216 µM)	0.25 (≈ 0.216 µM)	0.5 (≈ 0.431 µM)	0.5 (≈ 0.431 µM)	–	–	–	–	–	–	–	–
Colistin	–	–	–	–	–	–	–	–	–	–	–	–	–	–	–	–	–	Albumin, urine [3]: 2,353-2,548 μg/24 h; Cystatin C, urine [3]: 1,266-1,678 ng/24 h; KIM-1, urine [3]: 42-89 ng/24 h
CC[C@@H]1NC(=O)[C@@H](Cc2ccccc2)NC(=O)[C@H](CCN)NC(=O)[C@@H](NC(=O)[C@H](CN)NC(=O)[C@@H](NC(=O)C[C@H](CN)c2cccc(C(C)C)c2)[C@@H](C)O)CCNC(=O)[C@H]([C@@H](C)O)NC(=O)[C@H](CCN)NC(=O)[C@H](CCN)NC1=O [Example 17] (X3-T[Dap][Dab][Dab][dF][Abu][Dab][Dab]T; lactam 3-C)	–	–	–	–	–	–	–	–	–	–	8 (≈ 7.12 µM)	0.25 (≈ 0.222 µM)	16 (≈ 14.2 µM)	0.06 (≈ 0.0534 µM)	0.06 (≈ 0.0534 µM)	–	–	tissue level at time at 4 h [1, 6]: 231000 ng/g; Basophilic tubules (histopathology) ([4]; animals per grade): 3 normal/2 minimal; Tubular degeneration/necrosis (histopathology) ([4]; animals per grade): All normal; Albumin, elevation compared with vehicle control ([4]; urine): 2.7×; Cystatin C, elevation compared with vehicle control ([4]; urine): 1.8×; KIM-1, elevation compared with vehicle control ([4]; urine): 4.7×; HK-2 rel to PMB (HK-2 cells; [7]): 29.0
CC(C)C[C@@H]1NC(=O)[C@@H](Cc2ccccc2)NC(=O)[C@H](CCN)NC(=O)[C@@H](NC(=O)[C@H](CN)NC(=O)[C@@H](NC(=O)C[C@@H](CN)c2ccc(Cl)cc2)[C@@H](C)O)CCNC(=O)[C@H]([C@@H](C)O)NC(=O)[C@H](CCN)NC(=O)[C@H](CCN)NC1=O [Example 2, (R)-4-amino-3-(4- chlorophenyl)butanoyl- Thr-Dap-Cyclo[Dab- Dab-DPhe-Leu-Dab- Dab-Thr]] (X5-T[Dap][Dab][Dab][dF]L[Dab][Dab]T; lactam 3-C)	538000	7.2	8 (≈ 6.99 µM)	0.5 (≈ 0.437 µM)	2 (≈ 1.75 µM)	0.25 (≈ 0.218 µM)	0.25 (≈ 0.218 µM)	0.25 (≈ 0.218 µM)	0.25 (≈ 0.218 µM)	0.25 (≈ 0.218 µM)	–	–	–	–	–	–	–	4 hr kidney level/rel. cytotoxicity ([1]; mouse, in vivo): 75
CC(C)C[C@H]1NC(=O)[C@H](CCN)NC(=O)[C@@H](NC(=O)[C@H](CN)NC(=O)[C@@H](NC(=O)C[C@H](CN)c2cccc(C(C)C)c2)[C@@H](C)O)CCNC(=O)[C@H]([C@@H](C)O)NC(=O)[C@H](CCN)NC(=O)[C@H](CCN)NC(=O)[C@H]([C@@H](C)O)NC1=O [Example 19, (S)-4-amino-3-(3- isopropylphenyl) butanoyl-Thr-Dap- Cyclo[Dab-Dab-DLeu- Thr-Dab-Dab-Thr]] (X3-T[Dap][Dab][Dab][dL]T[Dab][Dab]T; lactam 3-C)	386000	101.4	32 (≈ 28.9 µM)	1 (≈ 0.904 µM)	64 (≈ 57.8 µM)	0.25 (≈ 0.226 µM)	0.25 (≈ 0.226 µM)	0.25 (≈ 0.226 µM)	0.25 (≈ 0.226 µM)	0.25 (≈ 0.226 µM)	–	–	–	–	–	–	–	–
CC(C)C[C@@H]1NC(=O)[C@@H](Cc2ccccc2)NC(=O)[C@H](CCN)NC(=O)[C@@H](NC(=O)[C@H](CN)NC(=O)[C@@H](NC(=O)C[C@H](CN)c2ccccc2Cl)[C@@H](C)O)CCNC(=O)[C@H]([C@@H](C)O)NC(=O)[C@H](CCN)NC(=O)[C@H](CCN)NC1=O [Example 3, (S)-4-amino-3-(2- chlorophenyl)butanoyl- Thr-Dap-Cyclo[Dab- Dab-DPhe-Leu-Dab- Dab-Thr]] (X15-T[Dap][Dab][Dab][dF]L[Dab][Dab]T; lactam 3-C)	–	–	–	–	–	–	–	–	–	–	32 (≈ 28 µM)	0.5 (≈ 0.437 µM)	65 (≈ 56.8 µM)	1 (≈ 0.874 µM)	2 (≈ 1.75 µM)	1 (≈ 0.874 µM)	0.5 (≈ 0.437 µM)	MIC P. aeruginosa ATCC 27853 (P. aeruginosa ATCC 27853; [8]): 0.5 µg/mL (≈ 0.437 µM)
CC(C)C[C@H]1NC(=O)[C@H](CCN)NC(=O)[C@@H](NC(=O)[C@H](CN)NC(=O)[C@@H](NC(=O)C[C@@H](CN)c2cccc(C(C)C)c2)[C@@H](C)O)CCNC(=O)[C@H]([C@@H](C)O)NC(=O)[C@H](CCN)NC(=O)[C@H](CCN)NC(=O)[C@H]([C@@H](C)O)NC1=O [Example 20, (R)-4-amino-3-(3- isopropylphenyl) butanoyl-Thr-Dap- Cyclo[Dab-Dab-DLeu- Thr-Dab-Dab-Thr]] (X9-T[Dap][Dab][Dab][dL]T[Dab][Dab]T; lactam 3-C)	–	–	–	–	–	–	–	–	–	–	64 (≈ 57.8 µM)	2 (≈ 1.81 µM)	64 (≈ 57.8 µM)	1 (≈ 0.904 µM)	2 (≈ 1.81 µM)	1 (≈ 0.904 µM)	2 (≈ 1.81 µM)	MIC P. aeruginosa ATCC 27853 (P. aeruginosa ATCC 27853; [8]): 0.5 µg/mL (≈ 0.452 µM)
CC(C)C[C@@H]1NC(=O)[C@@H](Cc2ccccc2)NC(=O)[C@H](CCN)NC(=O)[C@@H](NC(=O)[C@H](CN)NC(=O)[C@@H](NC(=O)C[C@H](CN)Cc2ccccc2)[C@@H](C)O)CCNC(=O)[C@H]([C@@H](C)O)NC(=O)[C@H](CCN)NC(=O)[C@H](CCN)NC1=O [Example 9, (R)-4-amino-3- benzylbutanoyl-Thr- Dap-Cyclo[Dab-Dab- DPhe-Leu-Dab-Dab- Thr). Isomer 1] ({GABA(3R-Bn)}-T[Dap][Dab][Dab][dF]L[Dab][Dab]T; lactam 3-C)	–	–	–	–	–	–	–	–	–	–	8 (≈ 7.12 µM)	0.5 (≈ 0.445 µM)	64 (≈ 56.9 µM)	–	0.25 (≈ 0.222 µM)	0.25 (≈ 0.222 µM)	0.25 (≈ 0.222 µM)	Drug Level in Kidney (μg/g kidney, 4 h) ([1]; mouse, 17.2 mg/kg sc, 4 h): 159 μg/g kidney; Drug level in kidney ([1]; mouse, 17.2 mg/kg sc, 4 hours): 159 µg/g; tissue level at time at 4 h [1, 6]: 159000 ng/g; 4 hr kidney level/rel. cytotoxicity ([1]; ratio of 4 h kidney level to HK-2 IC50 relative to PMB): 13; Kidney histopathology: signs of degeneration or regeneration ([5]; mice (n=6)): None of the animals; Albumin, urine ([5]; mice, urine 24 h): 749 μg/24 h; Cystatin C, urine ([5]; mice, urine 24 h): 754 ng/24 h; KIM-1, urine ([5]; mice, urine 24 h): 2 ng/24 h; HK-2 rel to PMB (HK-2 cells; [7]): 12.0
CC[C@@H]1NC(=O)[C@@H](CC(C)C)NC(=O)[C@H](CCN)NC(=O)[C@@H](NC(=O)[C@H](CN)NC(=O)[C@@H](NC(=O)C[C@H](CN)c2cccc(CC(C)C)c2)[C@@H](C)O)CCNC(=O)[C@H]([C@@H](C)O)NC(=O)[C@H](CCN)NC(=O)[C@H](CCN)NC1=O [Example 26, (S)-4-amino-3-(3- isobutylphenyl)butanoyl- Thr-Dap- Cyclo[Dab-Dab-DLeu- Abu-Dab-Dab-Thr]] (X6-T[Dap][Dab][Dab][dL][Abu][Dab][Dab]T; lactam 3-C)	353000	>58	8 (≈ 7.24 µM)	0.5 (≈ 0.453 µM)	8 (≈ 7.24 µM)	0.06 (≈ 0.0543 µM)	0.03 (≈ 0.0272 µM)	0.25 (≈ 0.226 µM)	0.06 (≈ 0.0543 µM)	0.5 (≈ 0.453 µM)	–	–	–	–	–	–	–	–
